Test results as given in publication PMC9860315, “Neuronally produced betaine acts via a ligand-gated ion channel to control behavioral states” (Proceedings of the National Academy of Sciences of the …, 2022).

Legend:
LGC-41 [1] = target: T1, LGC-41 (Caenorhabditis elegans, UniProt Q18518); test: two-electrode voltage clamp in Xenopus oocytes, block of current induced by […] betaine; format: cell-based
T1 construct: homomeric channel, cDNA from wild-type N2
T1 sequence (Q18518 26-540): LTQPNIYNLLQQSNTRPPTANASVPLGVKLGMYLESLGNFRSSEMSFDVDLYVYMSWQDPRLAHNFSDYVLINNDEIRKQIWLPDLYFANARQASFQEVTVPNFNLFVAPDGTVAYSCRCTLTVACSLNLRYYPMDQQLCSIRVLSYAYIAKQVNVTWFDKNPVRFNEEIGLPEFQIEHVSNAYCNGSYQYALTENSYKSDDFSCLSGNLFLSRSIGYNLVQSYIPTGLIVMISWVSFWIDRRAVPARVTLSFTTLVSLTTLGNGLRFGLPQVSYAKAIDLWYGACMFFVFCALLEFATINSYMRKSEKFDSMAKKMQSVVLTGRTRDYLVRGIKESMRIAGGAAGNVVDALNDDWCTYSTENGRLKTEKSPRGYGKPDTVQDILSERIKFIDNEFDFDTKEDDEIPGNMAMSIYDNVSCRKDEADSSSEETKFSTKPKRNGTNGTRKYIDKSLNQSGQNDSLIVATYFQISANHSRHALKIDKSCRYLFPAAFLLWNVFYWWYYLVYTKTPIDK

LGC-41 [2] = target: T1, LGC-41; test: two-electrode voltage clamp in Xenopus oocytes, agonist dose-response; format: cell-based

EC50 (LGC-41 [2]) [µM] | Compound | IC50 (LGC-41 [1]) [µM]
– | O=C1C[C@@H]2OCC=C3CN4CC[C@]56c7ccccc7N1[C@H]5[C@H]2[C@H]3C[C@H]46 [strychnine] | 973
211 | C[N+](C)(C)CC(=O)O [betaine] | –
– | C=C(C)[C@@H]1[C@H]2OC(=O)[C@@H]1[C@]1(O)C[C@H]3OC34C(=O)O[C@H]2[C@@]41C.CC(C)(O)[C@@H]1[C@H]2OC(=O)[C@@H]1[C@]1(O)C[C@H]3OC34C(=O)O[C@H]2[C@@]41C (stereo partly drawn) [picrotoxin] | 144
